According to patent publication US20250019387A1 (Frontier Medicines Corporation, priority 0001, published 2025):
Like-named read-outs stand apart in the source and are kept apart here.

Assays:
[1] = biological target: KRAS G12C and PI3Ka (Ras-binding domain) interaction (Homo sapiens (Human), UniProt P01116, C118S/C51S/C80L/G12C); assay: Inhibition of KRAS G12C and PI3Ka binding (AlphaScreen); conditions: GMPPNP-loaded KRAS G12C, 2 hours incubation with compound; read-out: PI3Ka RBD IC50
Procedure: Compounds were diluted in 100% DMSO and each compound concentration was spotted at 200 nl/well onto low volume, white 384 well plates. […] The KRAS GT2C was diluted in 25 mM Hepes, pH 7.4, 150 mM NaCl, 5 mMv MgCl2, 0.0100 TritonX-100 and 10 μM GMPPNP and added at 10 ul/well to compound-spotted plates resulting in a […] concentration of 2%. Plates were incubated for 2 hours. A mixture of RBD and the AlphaScreen streptavidin donor and nickel chelate acceptor beads diluted in 25 mMv Hepes, pH 7.4, 150 mMv NaCl, 5 mM MgCl2, 0.0100 TritonX-100 and 2% DMSO was then added at 10 ul/well and incubated for 60-90 minutes before the samples were read for emission at 570 nm after excitation of the donor beads at 680 nm. All incubations were performed at room temperature. […] Final assay conditions were 1.5 nM KRAS GT2C, 100 nM RBD, 1.25 ug/ml of AlphaScreen donor beads and 10 μg/ml AlphaLISA acceptor beads. IC50S were determined using nonlinear regression fit of [inhibitor]vs. response (4 parameters). […]

[2] = biological target: KRAS G12C and cRAF (Ras-binding domain) interaction (Homo sapiens (Human), UniProt P01116, C118S/C51S/C80L/G12C); assay: Inhibition of KRAS G12C and cRAF binding (AlphaScreen)
Summary of the method: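 Compounds (DMSO) preincubated 19-20 h at room temperature, then RBD with streptavidin donor and glutathione acceptor beads added in 25 mM Hepes pH 7.4, 150 mM NaCl, 5 mM MgCl2, 0.01% Triton X-100, 2% DMSO for 60-90 min. Emission 570 nm (excitation 680 nm); IC50 by 4-parameter fit. Counter-screen used biotin-AviTag-GST instead of RBD.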

[3] = GMPPNP-loaded KRAS G12C, 19-20 hours incubation with compound, read-out: IC50 (Inhibition of KRAS G12C and cRAF Binding)

KRAS G12C and cRAF (Ras-binding domain) interaction, sequence (P01116 other isoform, or with tags, fused parts or gaps G12C/C51S/C80L/C118S): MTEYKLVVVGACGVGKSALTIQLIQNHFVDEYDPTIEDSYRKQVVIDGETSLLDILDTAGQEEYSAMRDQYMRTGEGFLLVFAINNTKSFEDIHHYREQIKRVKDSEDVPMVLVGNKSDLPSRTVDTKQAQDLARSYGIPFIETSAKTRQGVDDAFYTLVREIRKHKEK
KRAS G12C and PI3Ka (Ras-binding domain) interaction, sequence (P01116 other isoform, or with tags, fused parts or gaps G12C/C51S/C80L/C118S): as above

Compound | IC50 [1] [µM] | IC50 [2, 3] [µM] | IC50 ([2]; additional exemplary compounds, KRAS G12C and cRAF binding, read-out: RAF1 RBD IC50) [µM]
CN(c1nc(OC[C@@]23CCCN2C[C@H](F)C3)nc2c1CCN(c1cccc3cccc(Cl)c13)C2)[C@@H]1CCN(C(=O)/C=C/c2nc([C@H]3C[C@@H]3F)no2)C1 [Example 130, (E)-1-((R)-3-((7-(8-chloronaphthalen-1-yl)-2-(((2R,7aS)-2-fluorohexahydro-1H-pyrrolizin-7a-yl)methoxy)-5,6,7,8-tetrahydropyrido[3,4-d]pyrimidin-4-yl)(methyl)amino)pyrrolidin-1-yl)-3-(3-((1R,2S)-2-fluorocyclopropyl)-1,2,4-oxadiazol-5-yl)prop-2-en-1-one] | 0.01 to 0.1 | 0.01 to 0.1 | –
CN(CC1CN(C(=O)/C=C/c2nc([C@H]3C[C@@H]3F)no2)C1)c1nc(OC[C@@]23CCCN2C[C@H](F)C3)nc2c(F)c(-c3cccc4cccc(Cl)c34)ncc12 [Example 139, (E)-1-(3-(((7-(8-chloronaphthalen-1-yl)-8-fluoro-2-(((2R,7aS)-2-fluorotetrahydro-1H-pyrrolizin-7a(5H)-yl)methoxy)pyrido[4,3-d]pyrimidin-4-yl)(methyl)amino)methyl)azetidin-1-yl)-3-(3-((1R,2S)-2-fluorocyclopropyl)-1,2,4-oxadiazol-5-yl)prop-2-en-1-one] | 0.01 to 0.1 | 0.01 to 0.1 | –
CN(c1nc(OC[C@@]23CCCN2C[C@H](F)C3)nc2c(F)c(-c3cccc4cccc(Cl)c34)ncc12)[C@@H]1CCN(C(=O)/C=C/c2nc([C@H]3C[C@@H]3F)no2)C1 [Example 140, (E)-1-((R)-3-((7-(8-chloronaphthalen-1-yl)-8-fluoro-2-(((2R,7aS)-2-fluorohexahydro-1H-pyrrolizin-7a-yl)methoxy)pyrido[4,3-d]pyrimidin-4-yl)(methyl)amino)pyrrolidin-1-yl)-3-(3-((1R,2S)-2-fluorocyclopropyl)-1,2,4-oxadiazol-5-yl)prop-2-en-1-one] | 0.01 to 0.1 | 0.01 to 0.1 | –
CN(c1nc(OCC23CCCN2CCC3)nc2c1CCN(c1cccc3cccc(Cl)c13)C2)[C@@H]1CCN(C(=O)/C=C/c2nc(C3CC3)no2)C1 [Example 161, (R,E)-1-(3-((7-(8-chloronaphthalen-1-yl)-2-((hexahydro-1H-pyrrolizin-7a-yl)methoxy)-5,6,7,8-tetrahydropyrido[3,4-d]pyrimidin-4-yl)(methyl)amino)pyrrolidin-1-yl)-3-(3-cyclopropyl-1,2,4-oxadiazol-5-yl)prop-2-en-1-one] | 0.01 to 0.1 | 0.01 to 0.1 | –
CCc1noc(/C=C/C(=O)N2CC(CN(C)c3nc(OCC45CCCN4CCC5)nc4c3CCN(c3cccc5cccc(Cl)c35)C4)C2)n1 [Example 168, (E)-1-(3-(((7-(8-chloronaphthalen-1-yl)-2-((hexahydro-1H-pyrrolizin-7a-yl)methoxy)-5,6,7,8-tetrahydropyrido[3,4-d]pyrimidin-4-yl)(methyl)amino)methyl)azetidin-1-yl)-3-(3-ethyl-1,2,4-oxadiazol-5-yl)prop-2-en-1-one] | 0.01 to 0.1 | 0.01 to 0.1 | –
CN(CC1CN(C(=O)/C=C/c2nc(C3CC3)no2)C1)c1nc(OCC23CCCN2CCC3)nc2c1CCN(c1cccc3cccc(Cl)c13)C2 [Example 172, (E)-1-(3-(((7-(8-chloronaphthalen-1-yl)-2-((hexahydro-1H-pyrrolizin-7a-yl)methoxy)-5,6,7,8-tetrahydropyrido[3,4-d]pyrimidin-4-yl)(methyl)amino)methyl)azetidin-1-yl)-3-(3-cyclopropyl-1,2,4-oxadiazol-5-yl)prop-2-en-1-one] | 0.01 to 0.1 | 0.01 to 0.1 | –
C#Cc1c(F)ccc2cccc(-c3ncc4c(N(C)[C@@H]5CCN(C(=O)C=C)C5)nc(OC[C@]56CCCN5C[C@H](F)C6)nc4c3F)c12 [Example 305, 1-((R)-3-((7-(8-ethynyl-7-fluoronaphthalen-1-yl)-8-fluoro-2-(((2R,7aR)-2-fluorotetrahydro-1H-pyrrolizin-7a(5H)-yl)methoxy)pyrido[4,3-d]pyrimidin-4-yl)(methyl)amino)pyrrolidin-1-yl)prop-2-en-1-one] | – | 0.01 to 0.1 | –

The remaining lines, values ahead:

IC50 [1] [µM] | IC50 [2, 3] [µM] | IC50 ([2]; additional exemplary compounds, KRAS G12C and cRAF binding, read-out: RAF1 RBD IC50) [µM] | Compound
0.01 to 0.1 | 0.01 to 0.1 | – | CN(CC1CN(C(=O)/C=C/c2nc(C3CC3)no2)C1)c1nc(OCC23CCCN2CCC3)nc2c(F)c(-c3cccc4cccc(Cl)c34)ncc12 [Example 173, (E)-1-(3-(((7-(8-chloronaphthalen-1-yl)-8-fluoro-2-((tetrahydro-1H-pyrrolizin-7a(5H)-yl)methoxy)pyrido[4,3-d]pyrimidin-4-yl)(methyl)amino)methyl)azetidin-1-yl)-3-(3-cyclopropyl-1,2,4-oxadiazol-5-yl)prop-2-en-1-one]
0.01 to 0.1 | < 0.01 | – | CN1C[C@H](O)C[C@H]1C#CC(=O)N1CC[C@@H](N(C)c2nc(OC[C@@]34CCCN3C[C@H](F)C4)nc3c(F)c(-c4cccc5cccc(Cl)c45)ncc23)C1 [Example 247, 1-((R)-3-((7-(8-chloronaphthalen-1-yl)-8-fluoro-2-(((2R,7aS)-2-fluorohexahydro-1H-pyrrolizin-7a-yl)methoxy)pyrido[4,3-d]pyrimidin-4-yl)(methyl)amino)pyrrolidin-1-yl)-3-((2S,4R)-4-hydroxy-1-methylpyrrolidin-2-yl)prop-2-yn-1-one]
0.01 to 0.1 | 0.01 to 0.1 | – | CN1C[C@@H](O)C[C@@H]1C#CC(=O)N1CC[C@@H](N(C)c2nc(OC[C@@]34CCCN3C[C@H](F)C4)nc3c(F)c(-c4cccc5cccc(Cl)c45)ncc23)C1 [Example 248, 1-((R)-3-((7-(8-chloronaphthalen-1-yl)-8-fluoro-2-(((2R,7aS)-2-fluorohexahydro-1H-pyrrolizin-7a-yl)methoxy)pyrido[4,3-d]pyrimidin-4-yl)(methyl)amino)pyrrolidin-1-yl)-3-((2R,4S)-4-hydroxy-1-methylpyrrolidin-2-yl)prop-2-yn-1-one]
0.01 to 0.1 | 0.01 to 0.1 | – | C=CC(=O)N1CC[C@@H](N(C)c2nc(OC[C@@]34CCCN3C[C@H](F)C4)nc3c(F)c(-c4cccc5cccc(F)c45)ncc23)C1 [Example 258, 1-((R)-3-((8-fluoro-7-(8-fluoronaphthalen-1-yl)-2-(((2R,7aS)-2-fluorotetrahydro-1H-pyrrolizin-7a(5H)-yl)methoxy)pyrido[4,3-d]pyrimidin-4-yl)(methyl)amino)pyrrolidin-1-yl)prop-2-en-1-one]
0.01 to 0.1 | 0.1 to 0.5 | – | C=CC(=O)N1CC[C@@H](N(C)c2nc(OCC34CCCN3CCC4)nc3c(F)c(-c4cccc5cccc(F)c45)ncc23)C1 [Example 259, (R)-1-(3-((8-fluoro-7-(8-fluoronaphthalen-1-yl)-2-((tetrahydro-1H-pyrrolizin-7a(5H)-yl)methoxy)pyrido[4,3-d]pyrimidin-4-yl)(methyl)amino)pyrrolidin-1-yl)prop-2-en-1-one]
– | > 0.5 | – | C=CC(=O)N1CC[C@@H](N(C)c2nc(OC[C@@]34CCCN3C[C@H](F)C4)nc3c(F)c(-c4cccc5cccc(C#CC)c45)ncc23)C1 [Example 306, 1-((R)-3-((8-fluoro-2-(((2R,7aS)-2-fluorotetrahydro-1H-pyrrolizin-7a(5H)-yl)methoxy)-7-(8-(prop-1-yn-1-yl)naphthalen-1-yl)pyrido[4,3-d]pyrimidin-4-yl)(methyl)amino)pyrrolidin-1-yl)prop-2-en-1-one]
– | > 0.5 | – | C=CC(=O)N1CC[C@@H](N(C)c2nc(OC[C@@]34CCCN3C[C@H](F)C4)nc3c(F)c(-c4cccc5cccc(C(F)F)c45)ncc23)C1 [Example 307, 1-((R)-3-((7-(8-(difluoromethyl)naphthalen-1-yl)-8-fluoro-2-(((2R,7aS)-2-fluorohexahydro-1H-pyrrolizin-7a-yl)methoxy)pyrido[4,3-d]pyrimidin-4-yl)(methyl)amino)pyrrolidin-1-yl)prop-2-en-1-one]
– | – | 0.01 to 0.1 | C=CC(=O)N1C[C@H](F)[C@@H](N(C)c2nc(OC[C@@]34CCCN3C[C@H](F)C4)nc3c(F)c(-c4cccc5cccc(Cl)c45)ncc23)C1 [drawing 2208]
